Numbers after ± are expanded uncertainties.
Assay: refractive index (Na D-line) (dimensionless); xn = mol fraction of the nth substance listed
Settings: Liquid, Standard Abbe refractometry

C1COCCO1 [1,4-dioxane] + c1ccccc1
refractive index
Settings	288.15 K	293.15 K	298.15 K	303.15 K	308.15 K	313.15 K	318.15 K
x1 = 0.0713	1.4982 ± 0.0007	1.4951 ± 0.0007	1.4921 ± 0.0007	1.489 ± 0.0007	1.4859 ± 0.0007	1.4829 ± 0.0007	1.4798 ± 0.0007
x1 = 0.1403	1.4924 ± 0.0007	1.4894 ± 0.0007	1.4864 ± 0.0007	1.4834 ± 0.0007	1.4803 ± 0.0007	1.4773 ± 0.0007	1.4743 ± 0.0007
x1 = 0.2123	1.4864 ± 0.0007	1.4835 ± 0.0007	1.4805 ± 0.0007	1.4775 ± 0.0007	1.4746 ± 0.0007	1.4716 ± 0.0007	1.4686 ± 0.0007
x1 = 0.2809	1.4807 ± 0.0007	1.4778 ± 0.0007	1.4749 ± 0.0007	1.472 ± 0.0007	1.4691 ± 0.0007	1.4662 ± 0.0007	1.4633 ± 0.0007
x1 = 0.3528	1.4748 ± 0.0007	1.472 ± 0.0007	1.4692 ± 0.0007	1.4663 ± 0.0007	1.4635 ± 0.0007	1.4607 ± 0.0007	1.4578 ± 0.0007
x1 = 0.4195	1.4694 ± 0.0007	1.4666 ± 0.0007	1.4639 ± 0.0007	1.4611 ± 0.0007	1.4583 ± 0.0007	1.4556 ± 0.0007	1.4528 ± 0.0007
x1 = 0.5037	1.4626 ± 0.0007	1.4599 ± 0.0007	1.4573 ± 0.0007	1.4546 ± 0.0007	1.4519 ± 0.0007	1.4492 ± 0.0007	1.4465 ± 0.0007
x1 = 0.58	1.4565 ± 0.0007	1.4539 ± 0.0007	1.4513 ± 0.0007	1.4487 ± 0.0007	1.4461 ± 0.0007	1.4435 ± 0.0007	1.4409 ± 0.0007
x1 = 0.6504	1.451 ± 0.0007	1.4484 ± 0.0007	1.4459 ± 0.0006	1.4434 ± 0.0006	1.4409 ± 0.0007	1.4383 ± 0.0007	1.4357 ± 0.0007
x1 = 0.7197	1.4456 ± 0.0006	1.4432 ± 0.0006	1.4407 ± 0.0006	1.4382 ± 0.0006	1.4358 ± 0.0006	1.4332 ± 0.0007	1.4307 ± 0.0006
x1 = 0.7822	1.4408 ± 0.0006	1.4384 ± 0.0006	1.436 ± 0.0006	1.4336 ± 0.0006	1.4312 ± 0.0006	1.4287 ± 0.0006	1.4263 ± 0.0006
x1 = 0.8561	1.4352 ± 0.0006	1.4329 ± 0.0006	1.4306 ± 0.0006	1.4283 ± 0.0006	1.426 ± 0.0006	1.4236 ± 0.0006	1.4212 ± 0.0006
x1 = 0.9287	1.4298 ± 0.0006	1.4276 ± 0.0006	1.4254 ± 0.0006	1.4232 ± 0.0006	1.421 ± 0.0006	1.4187 ± 0.0006	1.4164 ± 0.0006
x1 = 1	1.4245 ± 0.0006	1.4224 ± 0.0006	1.4203 ± 0.0006	1.4182 ± 0.0006	1.4161 ± 0.0006	1.4139 ± 0.0006	1.4117 ± 0.0006
